In US20110123512A1, “METHOD OF REGULATING THE HEAT SHOCK RESPONSE” (priority 2008, published 2011):
“Also recorded” adds a separate entry of the source.

Key:
[1] = test system: hsp70 (C12C8.1) mRNA; test: cadmium stress: hsp70 (C12C8.1) induction; assay type: in vivo, C. elegans; conditions: 50 μM
Procedure: (§1) mRNA was prepared using the “ABSOLUTELY RNA® Nanoprep Kit” (Stratagene, Catalog #400753). The manufacturer's protocol was adapted to achieve maximal lysis of worms. Briefly, 5-10 adult animals were picked either from the control or experimental plates into 100 μl of buffer made up by mixing 7 μl 13-ME (instead of the recommended 0.7 μl 13-ME), with 100 μl Lysis Buffer provided by the manufacturer. The suspension was subjected to numerous cycles of freeze-thawing in liquid nitrogen and vortexing until the animals were completely lysed. RNA was then purified as detailed in the manufacturer's protocol. mRNA was reverse transcribed using the ISCRIPT™ cDNA Synthesis Kit (Bio-Rad, Catalog #170-8891). Quantitative PCR was performed using iQ™ SYBR® Green Supermix (Bio-Rad, Catalog #170-8880), in the iCycler system (Bio-Rad) at a 25 μl sample volume, in thin wall 200 μl PCR plates (Cat. No. 223-9441) sealed with the optical quality sealing tape (Cat. No. 223-9444).
(§2) The relative amounts of hsp mRNA were determined using the Comparative CT Method for quantitation (14). The levels of hsp mRNA levels within an experiment were determined relative to actin mRNA, which was used as the internal control. The range of input of RNA was determined using serial dilutions of the cDNA that yielded a CT value of <30, for both the target cDNA and actin was used in all experiments. […]

[2] = test system: cadmium responsive genes, cdr-1 and mtl-1; test: cadmium stress: cadmium-responsive gene induction; assay type: in vivo, C. elegans
Procedure: as §1
The relative amounts of hsp mRNA were determined using the Comparative CT Method for quantitation (14). The levels of hsp mRNA levels within an experiment were determined relative to actin mRNA, which was used as the internal control. The range of input of RNA was determined using serial dilutions of the cDNA that yielded a CT value of <30, for both the target cDNA and actin was used in all experiments. This typically corresponded to 1 μl of the total cDNA obtained per sample. CT values were obtained in triplicate for each sample (technical triplicate), and three samples were used per experiment. Each experiment was then repeated a minimum of three times. All relative changes of hsp mRNA in the mutant strains were normalized to maximal wild-type values, except where otherwise noted.
Sterile-filtered cadmium chloride was added to a final concentration of 50 μM to standard, autoclaved, NGM medium, and used to make plates. OP50 was seeded onto the plates as described above. […] These animals were then harvested for quantitative RT-PCR. […]

[3] = test system: hsp70 (C12C8.1) mRNA; test: effect of dauer pheromone on the heat shock response; assay type: in vivo, C. elegans
Procedure: C. elegans strains were grown as described above, and all animals were heat shocked at a population density of 10 adults per plate. Sufficient N values were obtained by repeating each heat shock experiment a minimum of 3 times, with 3 samples of 10 animals per plate, per experiment. Heat shock at 30° C. or 34° C., for 15 minutes on agarose plates was achieved by sealing plates with parafilm, further sealing within zip-lock bags, and immersing in a water bath equilibrated to the appropriate temperature. Following heat shock, the parafilm was removed and the animals were allowed to recover at 20° C. for the course of the experiment.
mRNA was prepared using the “ABSOLUTELY RNA® Nanoprep Kit” (Stratagene, Catalog #400753). […] Quantitative PCR was performed using iQ™ SYBR® Green Supermix (Bio-Rad, Catalog #170-8880), in the iCycler system (Bio-Rad) at a 25 μl sample volume, in thin wall 200 μl PCR plates (Cat. No. 223-9441) sealed with the optical quality sealing tape (Cat. No. 223-9444).
as §2

[4] = test system: hsp70 (C12C8.1) expression; test: heat shock induction of hsp70 (C12C8.1) in worms anesthetized with volatile anesthetics; assay type: in vivo, C. elegans; conditions: for hsp70 (C12C8.1) expression in somatic cells: wild-type animals exposed to VAs for the full duration of heat shock (34° C., 15 minutes), 2 hours after recovery; for fraction of animals expressing GFP (hsp70 (C12C8.1) promoter GFP reporter): wild-type animals, VAs during heat shock, 2 hours post-heat shock, control 100%
[5] = test system: C. elegans; test: anesthesia: inhibition of movement and recovery; assay type: in vivo; conditions: within the first 15 minutes following exposure; no death; 10 adults per plate
Procedure: The VA anesthetics used were 2-Bromo-2-chloro-1,1,1-trifluoroethane (Halothane, Fluka, catalog #16730) and Isoflurane (Webster Veterinary NDC#14043-220-05). VA anesthetics were delivered as follows: lids of 1.5 ml eppendorf tubes were cut off, VA was pipetted into the lids, and the lids containing VAs were placed onto plates containing 10 adult wild-type or gcy-8 animals grown as described, and the plates were immediately sealed with parafilm. To inhibit neuronal signaling during the course of heat shock, the VA containing lids were placed on plates 5 minutes prior to the heat shock, and retained during the heat shock treatment of 34° C. for 15 minutes. The lids were then removed 10 minutes post-heat shock during recovery at 20° C., when the plates had equilibrated to 20° C. To inhibit neuronal signaling following the administration of heat shock, animals were heat shocked, and then the lids containing the same volume of VA was placed onto plates 20 minutes post-heat shock, and removed after 30 minutes.
As has been described before, the effect of the VA is extremely variable in any given population of C. elegans (15, 16) and is also influenced by other environmental factors, such as population density, to which the animals are exposed (15). Therefore it was necessary to titrate the amount of VA used for each experiment. […]

## [Cl][Cd][Cl] [cadmium, cadmium chloride]
[1]; after 16 hours of exposure
  hsp70 (C12C8.1) mRNA further induction: more than 10 fold
[1]; wild-type and gcy-8 mutant animals, 3 hours of exposure
  hsp70 (C12C8.1) mRNA: similarly increased
[2]; gcy-8 (thermosensory deficient) adult animals
  expression of cdr-1 and mtl-1 upon exposure to cadmium: can induce
[2]; osm-9 and ocr-2 mutant animals
  expression of cdr-1 and mtl-1 upon exposure to cadmium: deficient in their ability to upregulate
[2]; wild-type and gcy-8 mutant animals, 3 hours of exposure, 50 μM
  cdr-1 mRNA: similarly increased

## C[C@H](CCCCC(=O)O)O[C@@H]1O[C@@H](C)[C@H](O)C[C@H]1O [dauer pheromone]
[3]; gcy-8 mutant animals exposed to dauer pheromone, compared with heat-shocked wild-type under optimal growth conditions
  amounts of hsp70 (C12C8.1) mRNA after heat shock: induced even higher amounts
[3]; wild-type animals, high concentrations of dauer pheromone prior to or during heat shock (34° C., 15 minutes)
  amounts of hsp70 (C12C8.1) mRNA after heat shock: decreased

## FC(F)(F)C(Cl)Br (stereo not shown) [halothane, 2-Bromo-2-chloro-1,1,1-trifluoroethane]
[4]
  hsp70 (C12C8.1) expression in somatic cells: inhibition; also recorded: marked decrease
  fraction of animals expressing GFP (hsp70 (C12C8.1) promoter GFP reporter): 20%
[5]
  volume of VA that inhibited the movement of 100% of the animals on a plate: 5 to 15 µL

## FC(F)OC(Cl)C(F)(F)F (stereo not shown) [isoflurane, Isoflurane]
[4]
  hsp70 (C12C8.1) expression in somatic cells: inhibition; also recorded: marked decrease
  fraction of animals expressing GFP (hsp70 (C12C8.1) promoter GFP reporter): 20%
[5]
  volume of VA that inhibited the movement of 100% of the animals on a plate: 10 to 25 µL
